Test results from US9464092B2, “Transient protection of normal cells during chemotherapy” (G1 Therapeutics, Inc., priority 2013, dated 2016).

Legend:
Assay type in all cases: biochemical
CDK2/CyclinA = CDK2/CyclinA (Homo sapiens (Human), UniProt P24941); assay: CDK2/CyclinA kinase assay (Nanosyn, Caliper microfluidic); conditions: Table 2; for IC50: read-out: CDK2/CycA IC50
Procedure: (§1) Selected compounds disclosed herein were tested in CDK4/cyclinD1, CDK6/CycD3 CDK2/CycA and CDK2/cyclinE kinase assays by Nanosyn (Santa Clara, Calif.) to determine their inhibitory effect on these CDKs. The assays were performed using microfluidic kinase detection technology (Caliper Assay Platform). The compounds were tested in 12-point dose-response format in singlicate at Km for ATP. Phosphoacceptor substrate peptide concentration used was 1 μM for all assays and Staurosporine was used as the reference compound for all assays. Specifics of each assay are as described below:
CDK2/CyclinA: Enzyme concentration: 0.2 nM; ATP concentration: 50 μM; Incubation time: 3 hr.

CDK2/CyclinE = CDK2/CyclinE (Homo sapiens (Human), UniProt P24941); assay: CDK2/CyclinE kinase assay (Nanosyn, Caliper microfluidic); conditions: Table 2; for IC50: read-out: CDK2/CycE IC50
Procedure: Selected compounds disclosed herein were tested in CDK4/cyclinD1, CDK6/CycD3 CDK2/CycA and CDK2/cyclinE kinase assays by Nanosyn (Santa Clara, Calif.) to determine their inhibitory effect on these CDKs. The assays were performed using microfluidic kinase detection technology (Caliper Assay Platform). The compounds were tested in 12-point dose-response format in singlicate at Km for ATP. Phosphoacceptor substrate peptide concentration used was 1 μM for all assays and Staurosporine was used as the reference compound for all assays.

CDK4/CyclinD1 = CDK4/CyclinD1 (Homo sapiens (Human), UniProt P11802); assay: CDK4/CyclinD1 kinase assay (Nanosyn, Caliper microfluidic); conditions: Table 2; read-out: CDK4/CycD1 IC50
Procedure: as §1
CDK4/CyclinD1: Enzyme concentration: 1 nM; ATP concentration: 200 μM; Incubation time: 10 hr.

Chain of CDK4/CyclinD1 (P11802 whole entry, species assumed): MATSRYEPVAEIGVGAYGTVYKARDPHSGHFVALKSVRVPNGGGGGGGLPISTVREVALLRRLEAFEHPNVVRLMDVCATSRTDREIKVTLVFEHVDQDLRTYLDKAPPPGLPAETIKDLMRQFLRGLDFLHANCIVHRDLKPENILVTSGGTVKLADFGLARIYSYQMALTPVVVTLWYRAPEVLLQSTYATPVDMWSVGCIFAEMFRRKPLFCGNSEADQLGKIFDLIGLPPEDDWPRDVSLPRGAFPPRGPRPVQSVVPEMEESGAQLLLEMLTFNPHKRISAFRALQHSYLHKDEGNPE
Chain of CDK4/CyclinD1 (P24385 whole entry partner, species assumed): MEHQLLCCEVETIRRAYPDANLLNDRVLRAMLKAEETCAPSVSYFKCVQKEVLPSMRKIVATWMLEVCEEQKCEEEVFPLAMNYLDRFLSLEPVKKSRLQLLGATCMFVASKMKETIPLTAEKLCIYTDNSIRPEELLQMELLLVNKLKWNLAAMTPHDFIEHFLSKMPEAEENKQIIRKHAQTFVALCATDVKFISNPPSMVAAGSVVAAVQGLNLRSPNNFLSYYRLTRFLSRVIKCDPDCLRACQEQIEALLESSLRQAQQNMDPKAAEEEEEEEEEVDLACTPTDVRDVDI

Fold Selectivity (CDK2/CycA/CDK4) (CDK2/CyclinA) | IC50 (CDK2/CyclinA) [nM] | Fold Selectivity (CDK2/CycE/CDK4) (CDK2/CyclinE) | IC50 (CDK2/CyclinE) [µM] | IC50 (CDK4/CyclinD1) [nM] | SMILES
10109 | 4630 | 13319 | 6.1 | 0.5 | CC(C)N1CCN(c2ccc(Nc3ncc4cc5n(c4n3)C3(CCCCC3)CNC5=O)nc2)C[C@@H]1C [AA]
754 | 3160 | 1516 | 6.35 | 4.2 | C[C@H](O)CN1CCN(c2ccc(Nc3ncc4cc5n(c4n3)C3(CCCCC3)CNC5=O)nc2)CC1 [A]
603 | 502 | 2017 | 1.68 | 0.8 | CC1(C)CN(c2ccc(Nc3ncc4cc5n(c4n3)C3(CCCCC3)CNC5=O)nc2)CCN1C1CC1 [BB]
4266 | 1890 | 6862 | 3.04 | 0.4 | C[C@H]1CN(c2ccc(Nc3ncc4cc5n(c4n3)C3(CCCCC3)CNC5=O)nc2)CCN1CC1CC1 [B]
428 | 616 | 1333 | 1.92 | 1.4 | C[C@H](O)CN1CCN(c2ccc(Nc3ncc4cc5n(c4n3)C3(CCCCC3)CNC5=O)nc2)C[C@@H]1C [C]
4519 | 8360 | 5200 | 9.62 | 1.9 | C[C@@H]1CN(c2ccc(Nc3ncc4cc5n(c4n3)C3(CCCCC3)CNC5=O)nc2)C[C@H](C)N1C [DD]
1629 | 1500 | 3779 | 3.48 | 0.9 | CN1CCN(c2ccc(Nc3ncc4cc5n(c4n3)C3(CCCCC3)CNC5=O)nc2)CC1(C)C [D]
405 | 943 | 1266 | 2.95 | 2.3 | CC(C)(O)CN1CCN(c2ccc(Nc3ncc4cc5n(c4n3)C3(CCCC3)CNC5=O)nc2)CC1 [EEE]
289 | 1110 | 432 | 1.66 | 3.8 | CC(C)N1CCN(Cc2ccc(Nc3ncc4cc5n(c4n3)C3(CCCCC3)CNC5=O)nc2)CC1 [EE]
202 | 204 | 688 | 0.695 | 1 | CC(C)C1CN(c2ccc(Nc3ncc4cc5n(c4n3)C3(CCCCC3)CNC5=O)nc2)CCN1 (stereo not drawn) [E]
127 | 190 | 419 | 0.628 | 1.5 | O=C1NCC2(CCCCC2)n2c1cc1cnc(Nc3ccc(N4CCN(C5CCC5)CC4)cn3)nc12 [F]
 |  | 555 | 7.61 | 13.7 | CC(C)N1CCN(c2ccc(Nc3ncc4cc5n(c4n3)C3(CCCC3)CNC5=O)nc2)CC1C (stereo not drawn) [GGG]
159 | 265 | 766 | 1.28 | 1.7 | O=C1NCC2(CCCCC2)n2c1cc1cnc(Nc3ccc(N4CCN(CC5CC5)CC4)cn3)nc12 [HH]
1245 | 3150 |  |  |  | CN(C)C1CCN(c2ccc(Nc3ncc4cc5n(c4n3)C3(CCCCC3)CNC5=O)nc2)CC1 [O]
 |  | 1758 | 4.5 | 2.6 | CC(C)N1CCN(c2ccc(Nc3ncc4cc5n(c4n3)C3(CCCC3)CNC5=O)nn2)CC1 [RRR]
 |  | 899 | 3.03 | 3.4 | CN(C)C1CCN(c2ccc(Nc3ncc4cc5n(c4n3)C3(CCCC3)CNC5=O)nn2)CC1 [TTT]
 |  | 1490 | 6.9 | 4.6 | CN(C)C1CCN(c2ccc(Nc3ncc4cc5n(c4n3)C3(CCCC3)CNC5=O)nc2)CC1 [YY]

Further lines, the compound ahead of its results:

SMILES | Fold Selectivity (CDK2/CycA/CDK4) (CDK2/CyclinA) | IC50 (CDK2/CyclinA) [nM] | Fold Selectivity (CDK2/CycE/CDK4) (CDK2/CyclinE) | IC50 (CDK2/CyclinE) [µM] | IC50 (CDK4/CyclinD1) [nM]
CC(C)(C)CCN1CCN(c2ccc(Nc3ncc4cc5n(c4n3)C3(CCCC3)CNC5=O)nc2)CC1(C)C [CCC] | 226 | 457 | 1074 | 2.17 | 2
CCN(CC)C1CCN(c2ccc(Nc3ncc4cc5n(c4n3)C3(CCCCC3)CNC5=O)nc2)CC1 [CC] | 478 | 755 | 791 | 1.25 | 1.6
C[C@@H]1CN(c2ccc(Nc3ncc4cc5n(c4n3)C3(CCCC3)CNC5=O)nc2)C[C@H](C)N1 [DDD] |  |  | 986 | 9.35 | 9.5
CCN1[C@H](C)CN(c2ccc(Nc3ncc4cc5n(c4n3)C3(CCCCC3)CNC5=O)nc2)C[C@@H]1C [FF] | 1197 | 1400 | 3949 | 4.62 | 1.2
CC1CN(c2ccc(Nc3ncc4cc5n(c4n3)C3(CCCCC3)CNC5=O)nc2)CCN1CCC(C)(C)C (stereo not drawn) [G] | 442 | 646 | 1767 | 2.58 | 1.5
O=C1NCC2(CCCC2)n2c1cc1cnc(Nc3ccc(N4CCC(N5CCCCC5)CC4)cn3)nc12 [HHH] |  |  | 419 | 2.84 | 6.8
CC1(C)CN(c2ccc(Nc3ncc4cc5n(c4n3)C3(CCCCC3)CNC5=O)nc2)CCN1CC1CC1 [H] | 251 | 377 | 1013 | 1.52 | 1.5
CC(C)N1CCN(c2ccc(Nc3ncc4cc5n(c4n3)C3(CCCC3)CNC5=O)nc2)CC1 [III] |  |  | 626 | 3.77 | 6
CCN(CC)C1CCN(C(=O)c2ccc(Nc3ncc4cc5n(c4n3)C3(CCCCC3)CNC5=O)nc2)C1 (stereo not drawn) [JJ] |  |  | 204 | 0.288 | 1.4
O=C1NCC2(CCCCC2)n2c1cc1cnc(Nc3ccc(N4CCC(N5CCCCC5)CC4)cn3)nc12 [N] |  |  | 1500 | 1.5 | 1
O=C1NCC2(CCCC2)n2c1cc1cnc(Nc3ccc(N4CCNCC4)cn3)nc12 [QQQ] |  |  | 1057 | 11.1 | 10.5
CC(C)[C@H]1CNC(=O)c2cc3cnc(Nc4ccc(N5CCNCC5)cn4)nc3n21 [UUU] |  |  | 914 | 16.5 | 18
CCN(CC)C1CCN(c2ccc(Nc3ncc4cc5n(c4n3)C3(CCCC3)CNC5=O)nc2)C1 (stereo not drawn) [UU] |  |  | 542 | 3.96 | 7.3
CC(C)C[C@@H]1CNC(=O)c2cc3cnc(Nc4ccc(N5CCNCC5)cn4)nc3n21 [WWW] |  |  | 135 | 2.5 | 18.5
CC(C)C[C@@H]1CNC(=O)c2cc3cnc(Nc4ccc(N5CCN(C)CC5)cn4)nc3n21 [XXX] |  |  | 581 | 6.62 | 11.4
CN1CCN(c2ccc(Nc3ncc4cc5n(c4n3)C3(CCCC3)CNC5=O)nc2)CC1 [ZZ] |  |  | 949 | 9.96 | 10.5
